Assay results as given in US20240389599A1, “Antimicrobial Material Comprising a Tetraalkylphosphonium Ionic Liquid and Metal Nanoparticles” (University of Windsor, priority 2023, published 2024).

Columns and labels:
Type in all cases: cell-based
[1] = tested on: S. aureus; assay: resazurin-based MIC/MBC screen of the TAPILs; settings: resazurin assay
Text: (§1) The MIC evaluation of the three TAPILs is shown with E. coli (a) and S. aureus (b) as the microorganism under study, using resazurin as an indicator of bacterial viability. The numbers on the right correspond to the TAPILs—i.e. “1” stands for TAPIL-1. The MIC and MBC values (c) are shown for the three TAPILs deployed against E. coli and S. aureus as representative microorganisms.
(§2) The three TAPILs were screened against E. coli and S. aureus according to standard procedures (FIG. 2). The bacteria were selected as they are the representative strains (gram negative and positive, respectively) used for European Union regulations in the evaluation of disinfectants. A standard resazurin-based assay was employed: A blue well indicates non-viable bacteria, while a pink one indicates bacterial viability. The MIC and the MBC values are summarized.

[2] = tested on: E. coli; assay: resazurin-based MIC/MBC screen of the TAPILs
Text: as §1, §2

[3] = MIC/MBC of TAPIL-2 monitored upon ambient storage open to the atmosphere; settings: 3 weeks ambient storage open to the atmosphere
Text: The presence of one longer alkyl chain on the central phosphorus is believed to be preferred for anti-microbial activity since symmetrical TAPILs with four identical alkyl substituents around the phosphorus atom are likely to interact less strongly with the cell membrane to induce cell death. The MIC/MBC values of TAPIL-2 were monitored over a period of 3 weeks upon ambient storage open to the atmosphere. No change in its antimicrobial activity was detected.

CCCCCCCCCCCCCC[P+](CCCCCC)(CCCCCC)CCCCCC.[Cl-] [TAPIL-1]
antibacterial properties (in words) [1]: bacteriostatic properties at intermediate concentrations | antibacterial properties (in words) ([2]; resazurin assay): bacteriostatic properties at intermediate concentrations

CCCCCCCC[P+](CCCCCC)(CCCCCC)CCCCCC.[Cl-] [TAPIL-2]
Minimum Bactericidal Concentration (MBC) [2]: < 65 µg/mL | change in antimicrobial activity (MIC/MBC values) [3]: No change

CCCCCCCCCCCCCC[P+](CCCCCC)(CCCCCC)CCCCCC.O=S(=O)([N-]S(=O)(=O)C(F)(F)F)C(F)(F)F [TAPIL-3]
concentration up to which no anti-bacterial effects are shown (MIC/MBC) [1]: > 2000 µg/mL | concentration up to which no anti-bacterial effects are shown (MIC/MBC) ([2]; resazurin assay): > 2000 µg/mL
